This test addresses T1, recombinant human plasminogen activator inhibitor-1 (PAI-1) (Homo sapiens, UniProt P05121).
T1 construct: purchased Molecular Innovations, Royal Oak, Mich
Briefly: Primary Screen for the PAI-1 Inhibition. Format: biochemical. The note with it: for % Inhib. 100 μM / inhibition at 100 µM: 100 μM test compound; for % Inhib. 25 μM / inhibition at 25 µM: 25 μM test compound; for inhibition at 25 µM: read-out: % Inhib. 25 μM; for inhibition at 100 µM: read-out: % Inhib. 100 μM. On the procedure: Test compounds are dissolved in DMSO at a final concentration of 10 mM, then diluted 100× in physiologic buffer. The inhibitory assay is initiated by the addition of the test compound (1-100 μM final concentration, maximum DMSO concentration of 0.2%) in a pH 6.6 buffer containing 140 nM recombinant human plasminogen activator inhibitor-1 (PAI-1; Molecular Innovations, Royal Oak, Mich.). Following a 1 hour incubation at room temperature, 70 nM of recombinant human tissue plasminogen activator (tPA) is added, and the combination of the test compound, PAI-1 and tPA is incubated for an additional 30 minutes. Following the second incubation, Spectrozyme-tPA (American Diagnostica, Greenwich, Conn.), a chromogenic substrate for tPA, is added and absorbance read at 405 nm at 0 and 60 minutes. Relative PAI-1 inhibition is equal to the residual tPA activity in the presence of the test compound and PAI-1. Control treatments include the complete inhibition of tPA by PAI-1 at the molar ratio employed (2:1), and the absence of any effect of the test compound on tPA alone.

The values below come from patent US6589970B2, “6-(aryl-amido or aryl-amidomethyl)-naphthalen-2-yloxy-acidic derivatives as inhibitors of plasminogen activator inhibitor type-1 (PAI-1)” (Wyeth, priority 2001, dated 2003).

Where a name gives a salt, the structure may show the parent alone.

T1 sequence (P05121 24-402): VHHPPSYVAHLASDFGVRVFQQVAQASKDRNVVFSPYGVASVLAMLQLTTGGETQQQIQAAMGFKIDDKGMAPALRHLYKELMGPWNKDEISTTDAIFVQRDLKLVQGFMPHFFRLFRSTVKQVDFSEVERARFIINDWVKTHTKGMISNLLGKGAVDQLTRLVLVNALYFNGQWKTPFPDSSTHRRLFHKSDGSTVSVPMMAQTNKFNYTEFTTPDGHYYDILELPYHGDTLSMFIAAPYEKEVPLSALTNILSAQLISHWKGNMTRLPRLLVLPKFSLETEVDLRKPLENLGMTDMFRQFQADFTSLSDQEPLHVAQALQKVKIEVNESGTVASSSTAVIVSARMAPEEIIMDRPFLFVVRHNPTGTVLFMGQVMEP

As to `O=C(O)COc1ccc2cc(CNC(=O)c3cc4ccccc4o3)ccc2c1` [Example 1], the “% Inhib. 100 μM” value is listed as 23%.

Take `O=C(NCc1ccc2cc(OCc3nn[nH]n3)ccc2c1)c1cc2ccccc2o1` [Example 2]: the “% Inhib. 25 μM” value is 21% and the “% Inhib. 100 μM” value is 52%.

For the molecule `CCCCc1oc2ccccc2c1C(=O)Nc1ccc2cc(OCC(=O)O)ccc2c1` [Example 4, {6-[(2-Butyl-benzofuran-3-carbonyl)-amino]-naphthalen-2-yloxy}-acetic acid sodium salt], the inhibition at 25 µM is 3% and the inhibition at 100 µM stood at 66%.

Take `O=C(O)COc1ccc2cc(CNC(=O)c3cc(-c4ccc(Cl)cc4)oc3C(F)(F)F)ccc2c1` [Example 11, [6-({[5-(4-Chloro-phenyl)-2-trifluoromethyl-furan-3-carbonyl]-amino}-methyl)-naphthalen-2-yloxy]-acetic acid]: the inhibition at 100 µM came to 32%.

Turning to `CCCc1c(C(=O)NCc2ccc3cc(OCC(=O)O)ccc3c2)cnn1-c1ccccc1` [Example 12, (6-{[(1-phenyl-5-propyl-1H-pyrazole-4-carbonyl)-amino]-methyl}-naphthalen-2-yloxy)-acetic acid], the inhibition at 25 µM amounted to 5% and the inhibition at 100 µM worked out at 66%.

As to `CCCc1c(C(=O)NCc2ccc3cc(OCC(=O)O)ccc3c2)cnn1-c1ccc(Cl)cc1` [Example 13, [6-({[1-(4-Chloro-phenyl)-5-propyl-1H-pyrazole-4-carbonyl]-amino}-methyl)-naphthalen-2-yloxy]-acetic acid], the inhibition at 25 µM was found to be 5% and the inhibition at 100 µM stood at 52%.

On to `CCCc1c(C(=O)NCc2ccc3c(Br)c(OCC(=O)O)ccc3c2)cnn1-c1ccccc1` [Example 15, (1-Bromo-6-{[(1-phenyl-5-propyl-1H-pyrazole-4-carbonyl)-amino]-methyl}-naphthalen-2-yloxy)-acetic acid], for which the inhibition at 25 µM was 5% and the inhibition at 100 µM was 92%.

Take `O=C(O)COc1ccc2cc(CNC(=O)c3cnn(-c4ccc(Cl)cc4)c3C(F)(F)F)ccc2c1Br` [Example 16, [1-Bromo-6-({[1-(4-chloro-phenyl)-5-trifluoromethyl-1H-pyrazole-4-carbonyl]-amino}-methyl)-naphthalen-2-yloxy]-acetic acid]: the inhibition at 25 µM was 12% and the inhibition at 100 µM was determined as 85%.

In the case of `CCCCc1oc2ccccc2c1C(=O)NCc1ccc2c(Br)c(OCC(=O)O)ccc2c1` [Example 19, Sodium; (1-bromo-6-{[(2-butyl-benzofuran-3-carbonyl)-amino]-methyl}-naphthalen-2-yloxy)-acetate], the inhibition at 100 µM was determined as 32%.

Turning to `CCCCc1oc2ccccc2c1C(=O)N(CC)Cc1ccc2cc(OCc3nnn[nH]3)ccc2c1` [Example 35, 2-Butyl-benzofuran-3-carboxylic acid methyl-[6-(1H-tetrazol-5-ylmethoxy)-naphthalen-2ylmethyl]-methyl-amide], the inhibition at 25 µM is 26% and the inhibition at 100 µM came to 72%.

For `CN(Cc1ccc2c(Br)c(OCc3nnn[nH]3)ccc2c1)C(=O)c1ccc(Oc2cc(Cl)cc(Cl)c2)o1` [Example 38, 5-(3,5-Dichloro-phenoxy)-furan-2-carboxylic acid [5-bromo-6-(1H-tetrazol-5-ylmethoxy)-naphthalen-2-ylmethyl]-methyl-amide], the inhibition at 25 µM worked out at 47% and the inhibition at 100 µM was determined as 81%.

On to `CCCCc1c(C(=O)N(C)Cc2ccc3c(Br)c(OCC(Cc4ccccc4)C(=O)O)ccc3c2)oc2ccccc12` (stereo not shown) [Example 40, 2-Benzyl-3-(1-bromo-6-{[(3-butyl-benzofuran-2-carbonyl)-methyl-amino]-methyl}-naphthalen-2-yloxy)-propionic acid], for which the inhibition at 25 µM was determined as 60% and the inhibition at 100 µM was 96%.

For the molecule `Cc1c(C(=O)N(C)Cc2ccc3c(Br)c(OCC(Cc4ccccc4)C(=O)O)ccc3c2)oc2ccccc12` (stereo not shown) [Example 42, Sodium; 2-benzyl-3-(1-bromo-6-{[methyl-(3-methyl-benzofuran-2-carbonyl)-amino]-methyl}-naphthalen-2-yloxy)-propionate], the inhibition at 25 µM was 63% and the inhibition at 100 µM is 79%.

In the case of `CCc1oc2ccccc2c1C(=O)NCc1ccc2c(Br)c(OC(Cc3ccccc3)C(=O)O)ccc2c1` (stereo not shown) [Example 58, 2-(1-Bromo-6-{[(2-ethyl-benzofuran-3-carbonyl)-amino]-methyl}-naphthalen-2-yloxy)-3-phenyl-propionic acid], the inhibition at 100 µM came to 29%.

For `O=C(O)C(Cc1ccccc1)Oc1ccc2cc(CNC(=O)C3(c4ccc(Cl)cc4)CCCC3)ccc2c1Br` (stereo not shown) [Example 59], the “% Inhib. 100 μM” value was 44%.

For the molecule `O=C(NCc1ccc2c(Br)c(OC(Cc3ccccc3)C(=O)O)ccc2c1)c1ccc(-c2cccc(C(F)(F)F)c2)o1` (stereo not shown) [Example 60], the “% Inhib. 100 μM” value is recorded as 30%.

Consider `CN(Cc1ccc2c(Br)c(OC(Cc3ccccc3)C(=O)O)ccc2c1)C(=O)c1ccc(C2CCCCC2)cc1` (stereo not shown) [Example 61, 2-(1-Bromo-6-{[(4cyclohexyl-benzoyl)-methyl-amino]-methyl}-naphthalen-2-yloxy)-3-phenyl-propionic acid], for which the inhibition at 25 µM is 24% and the inhibition at 100 µM amounted to 75%.

On to `CCCCc1oc2ccccc2c1C(=O)N(C)Cc1ccc2c(Br)c(OC(Cc3ccccc3)C(=O)O)ccc2c1` (stereo not shown) [Example 62, 2-(1-Bromo-6-{[(2-butyl-benzofuran-3-carbonyl)-methyl-amino]-methyl}naphthalen-2-yloxy)-3-phenyl-propionic acid], for which the inhibition at 25 µM came out at 1% and the inhibition at 100 µM is 84%.

Take `CCCc1ccc(-c2ccc(C(=O)N(C)Cc3ccc4c(Br)c(OC(Cc5ccccc5)C(=O)O)ccc4c3)cc2)cc1` (stereo not shown) [Example 63, 2-(1-Bromo-6-{[methyl-(4′-propyl-biphenyl-4-carbonyl)-amino]-methyl}-naphthalen-2-yloxy)-3-phenyl-propionic acid]: the inhibition at 25 µM worked out at 14% and the inhibition at 100 µM was 69%.

On to `CCCc1c(C(=O)N(C)Cc2ccc3c(Br)c(OC(Cc4ccccc4)C(=O)O)ccc3c2)cnn1-c1ccccc1` (stereo not shown) [Example 66, 2-(1-Bromo-6-{[methyl-(1-phenyl-5-propyl-1H-pyrazole-4-carbonyl)-amino]-methyl}-naphthalen-2-yloxy)-3-phenyl-propionic acid], for which the inhibition at 25 µM turned out to be 46% and the inhibition at 100 µM worked out at 95%.

Regarding `CCCc1ccc(-c2ccc(C(=O)N(Cc3ccccc3)Cc3ccc4c(Br)c(OC(Cc5ccccc5)C(=O)O)ccc4c3)cc2)cc1` (stereo not shown) [Example 70, 2-(6-{[Benzyl-(4′-propyl-biphenyl-4-carbonyl)-amino]-methyl}-1-bromo-naphthalen-2-yloxy)-3-phenyl propionic acid], the inhibition at 25 µM came out at 17% and the inhibition at 100 µM is 81%.

In the case of `O=C(O)C(Cc1ccccc1)Oc1ccc2cc(CN(Cc3ccccc3)C(=O)c3ccc(C4CCCCC4)cc3)ccc2c1Br` (stereo not shown) [Example 71], the “% Inhib. 25 μM” value was 47% and the “% Inhib. 100 μM” value stood at 78%.

With `CCCc1c(C(=O)N(Cc2ccccc2)Cc2ccc3c(Br)c(OC(Cc4ccccc4)C(=O)O)ccc3c2)cnn1-c1ccccc1` (stereo not shown) [Example 72, 2-(6-{[Benzyl-(1-phenyl-5-propyl-1H-pyrozole-4-carbonyl)-amino]-methyl}-1-bromo-naphthalen-2-yloxy)-3-phenyl-propionic acid], the “% Inhib. 25 μM” value was 56% and the “% Inhib. 100 μM” value amounted to 68%.

For the molecule `O=C(O)COc1ccc2cc(NC(=O)c3cc(-c4ccccc4Cl)oc3C(F)(F)F)ccc2c1` [Example 73, (6-{[5-(2-Chloro-phenyl)-2-trifluoromethyl-furan-3-carbonyl]-amino}naphthalen-2-yloxy)-acetic acid], the inhibition at 25 µM was 23% and the inhibition at 100 µM came out at 65%.

With `O=C(O)COc1ccc2cc(NC(=O)c3ccc(-c4cccc(C(F)(F)F)c4)o3)ccc2c1` [Example 74, (6-{[5-(3-Trifluoromethyl-phenyl)-furan-2-carbonyl]-amino}-naphthalen-2-yloxy)-acetic acid], the inhibition at 25 µM was determined as 20% and the inhibition at 100 µM came to 59%.

Take `O=C(O)COc1ccc2cc(NC(=O)C3(c4ccc(Cl)cc4)CCCC3)ccc2c1` [Example 75, (6-{[1-(4-Chloro-phenyl)-cyclopentanecarbonyl]-amino}-naphthalen-2-yloxy)-acetic acid]: the inhibition at 25 µM amounted to 1% and the inhibition at 100 µM worked out at 55%.

As for `O=C(O)COc1ccc2cc(NC(=O)c3ccccc3OCc3ccccc3)ccc2c1` [Example 76], the “% Inhib. 25 μM” value is listed as 0% and the “% Inhib. 100 μM” value was found to be 54%.

On to `CC(C)(C)c1cc(C(=O)Nc2ccc3cc(OCC(=O)O)ccc3c2)cc(C(C)(C)C)c1` [Example 77, [6-(3,5-Di-tert-butyl-benzoylamino)-naphthalen-2yloxy]-acetic acid], for which the inhibition at 25 µM turned out to be 27% and the inhibition at 100 µM is 51%.

Regarding `O=C(O)COc1ccc2cc(NC(=O)c3cc(-c4ccc(-c5ccccc5)cc4)oc3C(F)(F)F)ccc2c1` [Example 78, {6-[(5-Biphenyl-4-yl-2-trifluoromethyl-furan-3-carbonyl)-amino]-naphthalen-2-yloxy}-acetic acid], the inhibition at 25 µM is 24% and the inhibition at 100 µM came out at 51%.
